{"source": "patent US12637424B2", "about": "“Pharmaceutical salt of an arylpyrrole derivative” (SENTINEL ONCOLOGY LIMITED, priority 2020, dated 2026)", "assay_in_all_cases": "DiscoverX KinomeScreen competition binding assay (kinase selectivity panel)", "key": {"[1]": {"target": "T1, panel of ninety-seven kinases (Homo sapiens, UniProt P36507)", "T1 construct": "purchased DiscoverX; host or cells: E. coli (BL21-derived, T7 phage display) or HEK-293", "details": "MAP2K2; screened at 3000 nM", "method_in_brief": "(§1)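 Kinases on T7 phage (BL21-derived E. coli host) or DNA-tagged from HEK-293 cells compete between compound and a bead-immobilized biotinylated ligand. Captured kinase is eluted and quantified by qPCR. Compound is tested at 3000 nM (3 μM); binding is reported as % Ctrl, with DMSO as 100% and control compound as 0%.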"}, "[2]": {"target": "T2, panel of ninety-seven kinases (Homo sapiens, UniProt Q86UX6)", "T2 construct": "purchased DiscoverX; host or cells: E. coli (BL21-derived, T7 phage display) or HEK-293", "details": "STK32C; screened at 3000 nM", "method_in_brief": "as §1"}, "[3]": {"target": "T3, panel of ninety-seven kinases (Homo sapiens, UniProt P12931)", "T3 construct": "purchased DiscoverX; host or cells: E. coli (BL21-derived, T7 phage display) or HEK-293", "details": "SRC; screened at 3000 nM", "method_in_brief": "as §1"}, "[4]": {"target": "T4, panel of ninety-seven kinases (Homo sapiens, UniProt O60674)", "T4 construct": "purchased DiscoverX; host or cells: E. coli (BL21-derived, T7 phage display) or HEK-293", "details": "JAK2; screened at 3000 nM", "method_in_brief": "as §1"}, "[5]": {"target": "T5, panel of ninety-seven kinases (Homo sapiens, UniProt Q9BUB5)", "T5 construct": "purchased DiscoverX; host or cells: E. coli (BL21-derived, T7 phage display) or HEK-293", "details": "MKNK1; screened at 3000 nM", "method_in_brief": "as §1"}, "[6]": {"target": "T6, panel of ninety-seven kinases (Homo sapiens, UniProt Q00526)", "T6 construct": "purchased DiscoverX; host or cells: E. coli (BL21-derived, T7 phage display) or HEK-293", "details": "CDK3; screened at 3000 nM", "method_in_brief": "as §1"}, "[7]": {"target": "T7, panel of ninety-seven kinases (Homo sapiens, UniProt Q9Y463)", "T7 construct": "purchased DiscoverX; host or cells: E. coli (BL21-derived, T7 phage display) or HEK-293", "details": "DYRK1B; screened at 3000 nM", "method_in_brief": "as §1"}, "[8]": {"target": "T8, panel of ninety-seven kinases (Homo sapiens, UniProt P08581)", "T8 construct": "purchased DiscoverX; host or cells: E. coli (BL21-derived, T7 phage display) or HEK-293", "details": "MET; screened at 3000 nM", "method_in_brief": "as §1"}, "[9]": {"target": "T9, panel of ninety-seven kinases (Homo sapiens, UniProt Q9BWU1)", "T9 construct": "purchased DiscoverX; host or cells: E. coli (BL21-derived, T7 phage display) or HEK-293", "details": "CDK19; screened at 3000 nM", "method_in_brief": "as §1"}, "[10]": {"target": "T10, panel of ninety-seven kinases (Homo sapiens, UniProt P11309)", "T10 construct": "purchased DiscoverX; host or cells: E. coli (BL21-derived, T7 phage display) or HEK-293", "details": "PIM1; screened at 3000 nM", "method_in_brief": "as §1"}, "[11]": {"target": "T11, panel of ninety-seven kinases (Homo sapiens, UniProt Q9UPE1)", "T11 construct": "purchased DiscoverX; host or cells: E. coli (BL21-derived, T7 phage display) or HEK-293", "details": "SRPK3; screened at 3000 nM", "method_in_brief": "as §1"}, "[12]": {"target": "T12, panel of ninety-seven kinases (Homo sapiens, UniProt P36896)", "T12 construct": "purchased DiscoverX; host or cells: E. coli (BL21-derived, T7 phage display) or HEK-293", "details": "ACVR1B; screened at 3000 nM", "method_in_brief": "as §1"}, "[13]": {"target": "T13, panel of ninety-seven kinases (Homo sapiens, UniProt P78368)", "T13 construct": "purchased DiscoverX; host or cells: E. coli (BL21-derived, T7 phage display) or HEK-293", "details": "CSNK1G2; screened at 3000 nM", "method_in_brief": "as §1"}, "[14]": {"target": "T14, panel of ninety-seven kinases (Homo sapiens, UniProt P27448)", "T14 construct": "purchased DiscoverX; host or cells: E. coli (BL21-derived, T7 phage display) or HEK-293", "details": "MARK3; screened at 3000 nM", "method_in_brief": "as §1"}, "[15]": {"target": "T15, panel of ninety-seven kinases (Homo sapiens, UniProt P30530)", "T15 construct": "purchased DiscoverX; host or cells: E. coli (BL21-derived, T7 phage display) or HEK-293", "details": "AXL; screened at 3000 nM", "method_in_brief": "as §1"}, "[16]": {"target": "T16, panel of ninety-seven kinases (Homo sapiens, UniProt P04049)", "T16 construct": "purchased DiscoverX; host or cells: E. coli (BL21-derived, T7 phage display) or HEK-293", "details": "RAF1; screened at 3000 nM", "method_in_brief": "as §1"}, "[17]": {"target": "T17, panel of ninety-seven kinases (Homo sapiens, UniProt P29597)", "T17 construct": "purchased DiscoverX; host or cells: E. coli (BL21-derived, T7 phage display) or HEK-293", "details": "TYK2; screened at 3000 nM", "method_in_brief": "as §1"}, "[18]": {"target": "T18, panel of ninety-seven kinases (Homo sapiens, UniProt Q96GD4)", "T18 construct": "purchased DiscoverX; host or cells: E. coli (BL21-derived, T7 phage display) or HEK-293", "details": "AURKB; screened at 3000 nM", "method_in_brief": "as §1"}, "[19]": {"target": "T19, panel of ninety-seven kinases (Homo sapiens, UniProt O15530)", "T19 construct": "purchased DiscoverX; host or cells: E. coli (BL21-derived, T7 phage display) or HEK-293", "details": "PDPK1; screened at 3000 nM", "method_in_brief": "as §1"}, "[20]": {"target": "T20, panel of ninety-seven kinases (Homo sapiens, UniProt P22607)", "T20 construct": "purchased DiscoverX; host or cells: E. coli (BL21-derived, T7 phage display) or HEK-293", "details": "FGFR3; screened at 3000 nM", "method_in_brief": "as §1"}, "[21]": {"target": "T21, panel of ninety-seven kinases (Homo sapiens, UniProt O14757)", "T21 construct": "purchased DiscoverX; host or cells: E. coli (BL21-derived, T7 phage display) or HEK-293", "details": "CHEK1; screened at 3000 nM", "method_in_brief": "as §1"}, "[22]": {"target": "T22, panel of ninety-seven kinases (Homo sapiens, UniProt P45983)", "T22 construct": "purchased DiscoverX; host or cells: E. coli (BL21-derived, T7 phage display) or HEK-293", "details": "MAPK8; screened at 3000 nM", "method_in_brief": "as §1"}}, "data": [{"smiles": "CN(C)CCNC(=O)c1ccc(-c2ccc(-c3ccc(Cl)cc3)n2-c2ccccc2C(F)(F)F)cc1", "note": "(single isomer, unassigned) [Atropisomer A-2]", "values": [{"measurement": "% Ctrl @ 3 μM", "setting": "[1]", "result": 81, "unit": "% Ctrl"}, {"measurement": "% Ctrl @ 3 μM", "setting": "[2]", "result": 100, "unit": "% Ctrl"}, {"measurement": "% Ctrl @ 3 μM", "setting": "[3]", "result": 100, "unit": "% Ctrl"}, {"measurement": "% Ctrl @ 3 μM", "setting": "[4]", "result": 80, "unit": "% Ctrl"}, {"measurement": "% Ctrl @ 3 μM", "setting": "[5]", "result": 92, "unit": "% Ctrl"}, {"measurement": "% Ctrl @ 3 μM", "setting": "[6]", "result": 100, "unit": "% Ctrl"}, {"measurement": "% Ctrl @ 3 μM", "setting": "[7]", "result": 97, "unit": "% Ctrl"}, {"measurement": "% Ctrl @ 3 μM", "setting": "[8]", "result": 100, "unit": "% Ctrl"}, {"measurement": "% Ctrl @ 3 μM", "setting": "[9]", "result": 81, "unit": "% Ctrl"}, {"measurement": "% Ctrl @ 3 μM", "setting": "[10]", "result": 99, "unit": "% Ctrl"}, {"measurement": "% Ctrl @ 3 μM", "setting": "[11]", "result": 71, "unit": "% Ctrl"}, {"measurement": "% Ctrl @ 3 μM", "setting": "[12]", "result": 96, "unit": "% Ctrl"}, {"measurement": "% Ctrl @ 3 μM", "setting": "[13]", "result": 100, "unit": "% Ctrl"}, {"measurement": "% Ctrl @ 3 μM", "setting": "[14]", "result": 100, "unit": "% Ctrl"}, {"measurement": "% Ctrl @ 3 μM", "setting": "[15]", "result": 93, "unit": "% Ctrl"}, {"measurement": "% Ctrl @ 3 μM", "setting": "[16]", "result": 92, "unit": "% Ctrl"}, {"measurement": "% Ctrl @ 3 μM", "setting": "[17]", "result": 100, "unit": "% Ctrl"}, {"measurement": "% Ctrl @ 3 μM", "setting": "[18]", "result": 84, "unit": "% Ctrl"}, {"measurement": "% Ctrl @ 3 μM", "setting": "[19]", "result": 96, "unit": "% Ctrl"}, {"measurement": "% Ctrl @ 3 μM", "setting": "[20]", "result": 92, "unit": "% Ctrl"}, {"measurement": "% Ctrl @ 3 μM", "setting": "[21]", "result": 100, "unit": "% Ctrl"}, {"measurement": "% Ctrl @ 3 μM", "setting": "[22]", "result": 77, "unit": "% Ctrl"}]}]}
